The values below come from patent US20250241862A1, “EXOSOMAL COMPOSITIONS INCLUDING ANESTHETICS” (THE BOARD OF TRUSTEES OF THE UNIVERSITY OF ALABAMA, priority 2024, published 2025).

For series [1], the system named is sciatic nerve. Kind of series: Rat sciatic nerve block, neurobehavioral test (hot plate thermal latency, weight bearing). Type of series: in vivo. The conditions noted are these: for nerve block at injected site (observation): single sciatic nerve injection 0.3 mL. The text has this:
Adult male Sprague-Dawley rats (Charles River Laboratories, Wilmington, MA) weighing 250-350 g were housed in groups, in a 6 am-6 pm light-dark cycle. Animals were cared for in accordance with protocols approved by the Institutional Animal Care and Use Committee of the University of Alabama (Protocol ID: 19-11-2992), and the Guide for the Care and Use of Laboratory Animals of the US National Research Council.
Nerve block injections were meticulously executed utilizing a 23-gauge needle, with rats being anesthetized under a combination of isoflurane and oxygen. […] Additionally, injections of free BUP were given at doses of 0.75 mg and 1.5 mg. A control group received an injection of 50 μg of empty exosomes. The injection technique involved positioning the needle posteromedially to the greater trochanter and directing it anteromedially. Upon making contact with the bone, the prepared solution was administered.
Subsequently, the rats underwent neurobehavioral test to determine the duration of functional deficits (i.e., sensory and motor nerve blockade) in both hind paws. The duration of deficits on the injected side (left, ipsilateral) reflected the duration of nerve block. Any deficits observed on the uninjected side (right, contralateral) were indicative of the systemic BUP distribution.
The efficacy of the nerve block was assessed at specified intervals using established methodologies. Sequentially, the left and then the right hind paws of the rats were subjected to a 56° C. hot plate (model 39D Hot Plate Analgesia meter; IITC Inc., Woodland Hills, CA). The duration until the paw was withdrawn, termed thermal latency, was meticulously recorded. […] Thermal latency serves as an indicator of analgesic potency. […] For a systemic effect baseline, latency was also gauged in the non-injected leg. The duration of the thermal nociceptive block was determined as the time taken for the thermal latency to revert from an elevated value to a baseline of 7 seconds. In adult rats, this 7-second threshold represents the median between the maximum block and the typical thermal latency, which is roughly 2 seconds, with the upper limit being 12 seconds. Motor function was evaluated by suspending the animal over a balance and recording the maximum weight the animal could bear. The duration of motor blockade was determined as the period until weight-bearing capacity returned to half of its normal level from the point of maximal block. For each rat, the halfway point was calculated as [(highest weight borne by either leg)−(lowest weight borne by the blocked leg)]/2+the lowest weight borne by the blocked leg.

For series [2], the system named is muscle at the injection site. The experiment in a line: Muscle histology (H&E) inflammation and myotoxicity scoring. Type of series: in vivo, rat. An excerpt: Following euthanasia, the sciatic nerve and adjacent muscle tissues were meticulously extracted. Muscle specimens underwent processing to yield slides stained with hematoxylin and eosin. A macroscopic dissection score was assigned based on the following criteria: 0=tissue planes obvious and easily separated; 1=tissue planes obvious but separated with some difficulty; 2=tissue planes adherent and separated with some difficulty; 3=tissue planes completely obliterated, could not separate surrounding tissues from nerve without cutting through them. Muscle samples underwent evaluation for inflammation (on a scale of 0-4) and myotoxicity (on a scale of 0-6). The inflammation score was a subjective measure of its severity. The myotoxicity score was based on two hallmark features of local anesthetic-induced myotoxicity: nuclear internalization and regeneration. […] Regeneration manifests as contracted myocytes with basophilic cytoplasm. The scoring was as follows: 0=normal; 1=perifascicular internalization; 2=deep internalization (>5 cell layers), 3=perifascicular regeneration, 4=deep regeneration, 5=hemifascicular regeneration, 6=holofascicular regeneration.
The sciatic nerve and surrounding tissues were harvested, sectioned, and stained for histologic assessment. Muscle tissues were processed for hematoxylin-eosin (H&E) staining. The myotoxicity and inflammation were quantified using a previously reported scoring system (Table 1, Table 2).

Series [3] in a line: In vitro release of BUP by dialysis. The conditions noted are these: dialysis 8-10 kD, 1×PBS pH 7.4, 37° C.; free BUP at 0.5% (w/v) and saturated concentrations. Type of series: physicochemical. Here is the method:
To assess the release kinetics of BUP from the BUP@EXO, a dialysis method was employed. Specifically, 1 mL of BUP@EXO, containing 5 mg BUP, was introduced into a Spectra/Por Float-A-Lyzer G2 dialysis bag with a molecular weight cutoff ranging from 8-10 kD (Spectrum Laboratories, Ranchodominguez, CA). This bag was then immersed in 20 mL of phosphate-buffered saline (PBS) with a pH of 7.4. The setup was maintained at 37° C. and subjected to continuous 200 rpm shaking. At specified time points, the dialysis bag was relocated to fresh 1×PBS to ensure a consistent concentration gradient. The concentration of BUP in the dialysate was ascertained by measuring its absorbance at 272 nm and referencing it against a pre-established standard curve. We collected the washout solutions (filtrate) in the lower chambers of centrifugal filters. Subsequently, these solutions underwent UV-Vis spectroscopy to determine the BUP concentration. The encapsulation efficiency is thereby calculated by
We conducted in-depth in vitro drug release kinetic analysis at 37° C. for our BUP@EXO formulations. 1 mL of BUP@EXO in 1×PBS, containing 5 mg BUP, was introduced into a dialysis bag with a molecular weight cutoff ranging from 8-10 kD. The dialysis bag was then immersed in 20 mL of 1×PBS with a pH of 7.4. The setup was maintained at 37° C. and subjected to continuous shaking of 200 rpm. […]

In series [4] the test system is Creatine Kinase (CK-total, CK-MB) activity in serum. The experiment in a line: Serum creatine kinase activity (CK-total, CK-MB), cardiotoxicity. The conditions noted are these: 48 hours after injection. Type of series: in vivo, rat. How it is done: In another experiment, rats were euthanized at the 48-hour mark. Blood samples were meticulously collected through two methods: a cardiac puncture, which involves drawing blood directly from the heart, and a separate collection from the femoral artery. Once collected, the blood samples were subjected to centrifugation, a process that separates the serum from other blood components. The isolated serum was then analyzed for creatine kinase activity using a colorimetric assay kit for creatine kinase activity. The intensity was quantified using a plate-reader, an instrument that measures absorbance levels.
It is important to recognize that the side effects of BUP and other local anesthetics go beyond just localized tissue reactions. A major concern with administering BUP is its potential harmful cardiotoxic effects. This can be particularly severe in certain instances, such as arrhythmias and cardiac asystole. Cardiotoxicity can be observed through increased activity of Creatine Kinase(CK), an family of enzymes that is released into the blood in response to lesions in contractile fibers, serve as biochemical markers for muscle damage, including myocardial injury. Elevated activity levels of CK, especially its cardiomyocyte isoform—Creatine Kinase-Myocardial Band (CK-MB), can be a warning sign for serious outcomes such as cardiac arrhythmias, heart failure, and other cardiovascular complications.
Two types of samples were obtained: from the femoral artery and cardiac puncture. These samples were analyzed to evaluate the activity in serum of total CK (CK-total) and its cardiomyocyte isoform (CK-MB).

The test system of series [5] is sciatic nerve. The experiment in a line: Sciatic nerve histology (toluidine blue) for neurotoxicity. Type of series: in vivo, rat. The text has this:
For nerve injury histology, samples underwent Epon-embedding and fixation using Karnovsky's KII Solution, which comprises 2.5% glutaraldehyde, 2.0% paraformaldehyde, and 0.025% calcium chloride in a 0.1 M sodium cacodylate buffer with a pH of 7.4. Subsequently, samples were post-fixed using osmium tetroxide, stained with uranyl acetate, and then dehydrated through a series of ethanol solutions. This was followed by infiltration with mixtures of propylene oxide and Epon. Sections, with a thickness of 0.5 μm, were then stained using toluidine blue, facilitating high-resolution light microscopy examination.
Epon-embedded sections of the sciatic nerve were stained with toluidine blue. […] Furthermore, when 2.5 mg free BUP was injected, 3 out of 4 tissues presented significant nerve degeneration, which is determined by the density decrease of nerve fibers within the nerve section (FIG. 6b).

For series [6] the following is noted: osmotic shock method; cited from earlier work.

Where a name gives a salt, the structure may show the parent alone.

`CCCCN1CCCCC1C(=O)Nc1c(C)cccc1C` (stereo not shown) [free BUP, Bupivacaine Hydrochloride]: the “success rate of nerve blockade” value with sciatic nerve [1] (0.75 mg BUP equivalent) is recorded as 0%. Also, the “contralateral nerve blockade (systemic distribution)” value with sciatic nerve [1] (0.75 mg BUP equivalent, uninjected side) was “no contralateral nerve blockade”; with sciatic nerve [1] (1.5 mg BUP equivalent, uninjected side), “no contralateral nerve blockade”. Moreover, the “nerve block at injected site (observation)” value was “neither a detectable nerve block nor toxicity” in the series with sciatic nerve [1] (0.75 mg BUP in PBS) and “successfully induced nerve block at the injected sites in all animals” in the series on sciatic nerve [1] (1.5 mg BUP in PBS). Moreover, the “duration of motor blockade” value stood at 0.458 ± 0.176 h in the series on sciatic nerve [1] (1.5 mg BUP equivalent) and 2.12 ± 0.54 h in the series on sciatic nerve [1] (2.5 mg BUP equivalent). In addition, the “duration of sensory nerve blockade” value worked out at 1.833 ± 0.250 h in the series on sciatic nerve [1] (1.5 mg BUP equivalent) and 2.75 ± 0.43 h in the series on sciatic nerve [1] (2.5 mg BUP equivalent). Moreover, in the series with sciatic nerve [1] (2.5 mg BUP), the occurrence of drowsiness is listed as 3 out of 4 animals. The “contralateral sensory nerve blockade (systemic distribution)” value with sciatic nerve [1] (2.5 mg BUP equivalent, uninjected side) is listed as 3 out of 4 animals. Besides, in the series with sciatic nerve [1] (2.5 mg BUP, uninjected side, 56° C. hot plate), the contralateral thermal latency is on record as about 7 s. Besides, the “myotoxicity score (scale 0-6)” value in series [2] (1.5 mg, 4 days, 1 of 4 rats) was found to be 2. Further, in series [2] (2.5 mg, 48 hours), the “inflammation score (out of 4)” value is given as “up to 3”. Moreover, the “myotoxicity score (out of 6)” value in series [2] (2.5 mg, 48 hours) is listed as “up to 3”. Further, the “cumulative release within initial 5-hour period” value in series [3] is “near-complete cumulative release”. In addition, the “Creatine Kinase activity profiles (CK-total, CK-MB) vs blank control” value in series [4] (0.75 mg) was “did not result in significant alteration”. The “CK activity vs blank control” value in series [4] (1.5 mg) and in series [4] (2.5 mg) was “considerable elevation in CK activity” throughout. Besides, the “tissues with signs of neurotoxicity” value in the series on sciatic nerve [5] (1.5 mg, 48 hours) is given as 1 out of 4. Besides, in the series on sciatic nerve [5] (2.5 mg), the “tissues with significant nerve degeneration” value was 3 out of 4.
In the case of `CC(=O)CCCCn1c(=O)c2c(ncn2C)n(C)c1=O` [pentoxifylline], the “encapsulation efficiency (drug per protein-equivalent exosomes)” value in series [6] is 0.85 μg of drug per μg of protein-equivalent exosomes.
